Measured values published in article PMC11352258, “The Influence of Betulin and Its Derivatives on Selected Colorectal Cancer Cell Lines’ Viability and Their Antioxidant Systems” (Cells, 2024).
Several values for one entry are separate records, joined by “and”; a condition that tells them apart may be missing. Equal entries are not always repeated.

Key:
RKO cells [1] = assay: MTT cytotoxicity assay, RKO; conditions: 24 h; for viability at 10 µg/mL / IC50: Homo sapiens; for IC50: read-out: IC50 value
Method: (§1) Six colorectal cancer cell lines, RKO, HT29, DLD-1, HCT116, Caco2 and SW1116 (CRL-2577, HTB-38, CCL-221, CCL-247, HTB-37, CCL-233; ATCC, Manassas, VA, USA, respectively, for CRC lines), and one normal cell line, CCD-841CoN (CRL-1790, ATCC, USA), were routinely cultured at 37 °C in a 5% CO2 incubator (Direct Heat CO2; Thermo Scientific, Waltham, MA, USA) in cell line-appropriate culture medium according to the manufacturer’s recommendations. Eagle’s minimum essential medium (EMEM) was used to culture RKO, Caco2 and CCD-841CoN lines, while McCoy’s 5A medium was used for HT29 and HCT116 lines. DLD-1 cells were grown in RPMI-1640 medium, whereas SW1116 cells were maintained in Leibovitz’s L-15 medium. All culture media were supplemented with 10% fetal bovine serum (EuroClone, Milan, Italy), and gentamycin at the concentration […] (BioWhittaker, Lonza, Basel, Switzerland) was also applied to prevent culture contamination.
(§2) For this purpose, cells were exposed to the test compound for 24 h at concentrations of 0.1, 1, 10, 20, 50 and 100 μg/mL. Control cells were not treated with the compounds. MTT (0.25 mg/mL) was then added to the cultures and incubated for 3 h at 37 °C. After a time, the cells were washed with phosphate buffered saline (PBS), and next, formazan dye was dissolved in 100 μL of dimethyl sulfoxide (Sigma-Aldrich, St Louis, MO, USA). Absorbance was measured at 540 nm using a Wallac 1420 VICTOR microplate reader (PerkinElmer, Waltham, MA, USA).

HT29 cells = assay: MTT cytotoxicity assay, HT29; type: cell-based; conditions: Homo sapiens, HT-29; HT29, MTT, 24 h; read-out: IC50 value
Text: (§3) Control cells were not treated with the compounds.

DLD-1 cells = assay: MTT cytotoxicity assay, DLD-1; type: cell-based; conditions: Homo sapiens; DLD-1, MTT, 24 h; read-out: IC50 value
Text: as §3

HCT116 cells = assay: MTT cytotoxicity assay, HCT116; type: cell-based; conditions: Homo sapiens; HCT 116, MTT, 24 h; read-out: IC50 value
Text: as §3

Caco2 cells = assay: MTT cytotoxicity assay, Caco2; type: cell-based; conditions: Homo sapiens, Caco-2; Caco2, MTT, 24 h; read-out: IC50 value
SW1116 cells [2] = assay: MTT cytotoxicity assay, SW1116; conditions: for viability at 10 µg/mL / IC50: Homo sapiens, SW 1116, 24 h; for IC50: read-out: IC50 value
Method: as §1, §2

[3] = system: colorectal cancer cell lines RKO, HT29, DLD-1, HCT116, Caco2 and SW1116; assay: MTT cytotoxicity assay, statements over all tested cell lines; conditions: MTT, 24 h
Method: as §1, §2

RKO cells [4] = assay: Lipid peroxidation, MDA assay, RKO; type: cell-based; conditions: 10 µg/mL, 24 h
Method: (§4) In addition, two colorectal cancer cell lines, RKO and SW1116, were distinguished based on a different response to the EB5 derivative. […] Untreated cells were used as a negative control. Three biological replicates were performed. To examine the antioxidant capacity of the cells as well as lipid peroxidation and to evaluate the activity of antioxidant enzymes, the cells were suspended in lysis buffer (containing 4 mg of […]™ Protease Inhibitor Cocktail and 10 µL of Phosphatase Inhibitor Cocktail 3 in 1 mL of PBS; Sigma-Aldrich, St Louis, MO, USA). Subsequently, the cells were placed in liquid nitrogen for 30 min, followed by storage at −80 °C until further analysis. To assess the level of lipid peroxidation, the Malondialdehyde Assay Kit (Aoxre BioSciences, Burlingame, CA, USA) was used, according to the manufacturer’s recommendations.

SW1116 cells [5] = assay: Lipid peroxidation, MDA assay, SW1116; type: cell-based; conditions: SW1116, 10 µg/mL, 24 h
Method: as §4

[6] = system: superoxide dismutase (SOD) activity in RKO cells; assay: SOD activity in RKO cells; type: cell-based; conditions: 10 µg/mL, 24 h
Method: (§5) In addition, two colorectal cancer cell lines, RKO and SW1116, were distinguished based on a different response to the EB5 derivative. To perform subsequent analyses, the selected CRC lines were treated with EB5 derivative at a concentration of 10 µg/mL for 24 h. Untreated cells were used as a negative control. Three biological replicates were performed.
(§6) To examine the antioxidant capacity of the cells as well as lipid peroxidation and to evaluate the activity of antioxidant enzymes, the cells were suspended in lysis buffer (containing 4 mg of […]™ Protease Inhibitor Cocktail and 10 µL of Phosphatase Inhibitor Cocktail 3 in 1 mL of PBS; Sigma-Aldrich, St Louis, MO, USA). Subsequently, the cells were placed in liquid nitrogen for 30 min, followed by storage at −80 °C until further analysis.
(§7) Superoxide dismutase (SOD), glutathione peroxidase (GPx) and catalase (CAT) activities were assessed using a commercially purchased Cayman Chemicals Superoxide Dismutase Assay Kit, a Cayman Chemicals Glutathione Peroxidase Assay Kit and a Catalase Assay Kit (Cayman Chemicals, Ann Arbor, MI, USA), respectively, according to the manufacturer’s recommendations and based on a previous study. […] The level of change in absorbance was measured spectrophotometrically at the appropriate wavelength for the assay, i.e., for SOD in the range 440–460 nm, for GPx at 340 nm and for CAT at 540 nm.

[7] = system: glutathione peroxidase (GPx) activity in RKO cells; assay: GPx activity in RKO cells; type: cell-based; conditions: 10 µg/mL, 24 h
Method: as §5, §6, §7

[8] = system: catalase (CAT) activity in SW1116 cells; assay: CAT activity in SW1116 cells; type: cell-based; conditions: SW1116, 10 µg/mL, 24 h
Method: as §5, §6
Superoxide dismutase (SOD), glutathione peroxidase (GPx) and catalase (CAT) activities were assessed using a commercially purchased Cayman Chemicals Superoxide Dismutase Assay Kit, a Cayman Chemicals Glutathione Peroxidase Assay Kit and a Catalase Assay Kit (Cayman Chemicals, Ann Arbor, MI, USA), respectively, according to the manufacturer’s recommendations and based on a previous study. The cell supernatant from previously prepared cell lysates of the tested lines provided material for further analyses. The level of change in absorbance was measured spectrophotometrically at the appropriate wavelength for the assay, i.e., for SOD in the range 440–460 nm, for GPx at 340 nm and for CAT at 540 nm.

[9] = system: CAT gene expression in RKO cells; assay: CAT mRNA, real-time RT-qPCR, RKO; type: cell-based; conditions: 10 µg/mL, 24 h
Method: as §5
(§8) Total RNA from treated cells was extracted using TRIzol reagent (Sigma-Aldrich, St Louis, MO, USA) according to the manufacturer’s instructions. The obtained RNA was assessed qualitatively and quantitatively by agarose gel electrophoresis and by spectrophotometric measurement using MaestroNano MN-913 (MaestroGen Inc., Las Vegas, NV, USA), respectively. The obtained extracts provided the starting material for the assessment of genes changes at the mRNA level.
(§9) Changes in the expression of SOD1, SOD2, CAT and GPX3 genes involved in antioxidant systems were assessed by real-time RT-qPCR using a LightCycler® 480 System apparatus (Roche, Basel, Switzerland). A commercially purchased GoTaq® 1-Step RT-qPCR System (Promega, Madison, WI, USA) was used, while the primers and reaction conditions were the same as in the previous study performed by Kruszniewska-Rajs et al.. GAPDH was used as the reference gene. The mRNA expression level studied genes were then determined by the 2^−ΔCt relative quantification method. All samples were tested in triplicate. The specificity of the reaction was evaluated based on the melting temperature curve, as well as using electrophoresis of the amplification products in a 2% agarose gel.

CCD-841CoN cells = assay: cells; type: cell-based; conditions: Homo sapiens; CCD-841CoN normal cells, MTT, 24 h; read-out: IC50 value
Text: as §3

RKO cells [10] = assay: Total antioxidant capacity (ABTS+), RKO; type: cell-based; conditions: 10 µg/mL, 24 h
Method: as §5, §6
The ABTS+ radical cation was used to assess the total antioxidant capacity (TAC) of the tested cells. The principle of the method is based on the reduction of the formed blue-green chromophore ABTS+ as a result of the reaction of ABTS (Sigma-Aldrich, St Louis, MO, USA) with potassium persulphate (Sigma-Aldrich, St Louis, MO, USA). The degree of decolorization of the ABTS+ radical cation depends on the antioxidant activity of the cells and is determined as a function of concentration and time in relation to Trolox reactivity (TEAC-Trolox equivalent antioxidant capacity).

[11] = system: superoxide dismutase (SOD) activity in SW1116 cells; assay: SOD activity in SW1116 cells; type: cell-based; conditions: SW1116, 10 µg/mL, 24 h
Method: as §5, §6, §7

[12] = system: SOD1 gene expression in RKO cells; assay: SOD1 mRNA, real-time RT-qPCR, RKO; type: cell-based; conditions: 10 µg/mL, 24 h
Method: as §5, §8, §9

[13] = system: SOD1 gene expression in SW1116 cells; assay: SOD1 mRNA, real-time RT-qPCR, SW1116; type: cell-based; conditions: SW1116, 10 µg/mL, 24 h
Method: as §5, §8, §9

[14] = system: SOD2 gene expression in SW1116 cells; assay: SOD2 mRNA, real-time RT-qPCR, SW1116; type: cell-based; conditions: SW1116, 10 µg/mL, 24 h
Method: as §5, §8, §9

[15] = system: CAT gene expression in SW1116 cells; assay: CAT mRNA, real-time RT-qPCR, SW1116; type: cell-based; conditions: SW1116, 10 µg/mL, 24 h
Method: as §5, §8, §9

Row | SMILES | viability at 10 µg/mL (RKO cells [1]) | IC50 (RKO cells [1]) | IC50 (HT29 cells) | IC50 (DLD-1 cells) | IC50 (HCT116 cells) | IC50 (Caco2 cells) | viability at 10 µg/mL (SW1116 cells [2]) | IC50 (SW1116 cells [2]) | increase in MDA levels compared to the control cells (RKO cells [4]) | MDA level compared to the control (SW1116 cells [5]) | catalase activity compared to the control [8] | CAT gene expression vs. untreated cells [9] | further results
1 | O=c1[nH]cc(F)c(=O)[nH]1 [5FU, 5-fluorouracil] | ≥ 50% | > 100 µg/mL and > 769 µM | > 100 µg/mL and > 769 µM | > 100 µg/mL and > 769 µM | > 100 µg/mL and > 769 µM | > 100 µg/mL and > 769 µM | ≥ 50% | > 100 µg/mL and > 769 µM | about 62.2% | did not cause changes | higher catalase activity | significant decrease in expression | cytotoxic effect compared with the other tested compounds [3]: weaker; SOD activity compared to cells treated with betulin [6]: modest increase; GPx activity vs. cells treated with EB5 [7]: slight increase; catalase activity compared to cells treated with EB5 [8]: higher catalase activity; catalase activity compared to cells treated with betulin [8]: higher catalase activity
2 | C=C(C)[C@@H]1CC[C@]2(CO)CC[C@]3(C)[C@H](CC[C@@H]4[C@@]5(C)CC[C@H](O)C(C)(C)[C@@H]5CC[C@]43C)[C@@H]12 [Betulin, lup-20(29)-ene-3β,28-diol] | ≥ 50% | 11.2 µg/mL and 25.2 µM | 8.49 µg/mL and 20.1 µM | 4.29 µg/mL and 10.2 µM | 4.63 µg/mL and 11 µM | 11.2 µg/mL and 26.5 µM | ≥ 50% | 9.77 µg/mL and 23.1 µM | about 73.1% | did not cause changes | did not cause changes | No statistically significant changes | decrease in the viability (RKO cells [1]; 10 µg/mL): ≤ 50%; decrease in the viability (SW1116 cells [2]; SW1116, 10 µg/mL, 24 h): ≤ 50%; IC50 (CCD-841CoN cells): 5.26 µg/mL and 12.4 µM; reduction in TAC compared to the control cells (RKO cells [10]): about 26.4%; increase in SOD activity compared to the untreated cells [11]: about 32.3%; SOD1 gene expression vs. cisplatin-treated cells [12]: decrease in SOD1 gene expression; SOD1 gene expression vs. EB5 derivative [13]: statistically significant difference; SOD1 gene expression vs. cisplatin [13]: statistically significant difference; SOD1 gene expression vs. non-treated cells [13]: statistically significant decrease in mRNA expression; SOD1 gene expression vs. non-treated cells ([13]; listed as B): statistically significant difference; SOD2 gene expression vs. cisplatin [14]: Decreased SOD2 gene expression; CAT gene expression vs. EB5 derivative [15]: decrease in expression was higher; CAT gene expression vs. cisplatin [15]: decrease in expression was higher; CAT gene expression vs. untreated cells [15]: statistically significant decrease in CAT gene expression
